# From patent US12378224B2 (Dong-A Socio Holdings Co., Ltd., priority 2016, dated 2025)
# Target: human MER (528-end) (Homo sapiens (Human), UniProt Q12866)
# Assay: HTRF Kinase Activity Biochemical Assay (KinEASE-TK)
# Details: 10 uM ATP
# Experimental: For the SAR (structure-activity relationship) and compound screening, HTRF (Homogeneous Time Resolved Fluorescence) kinase activity assay was employed for all MER, AXL and TYRO3 kinases using Cisbio HTRF® KinEASE™-TK kit (Cisbio, USA). The kit includes biotin-labeled TK substrate, streptavidin-XL665, Eu3+-cryptate-labeled TK antibody and HTRF® Detection buffer. There are two main steps in the kinase assay: kinase reaction and detection of phosphorylated substrate. The reaction was carried out in white low volume 384-well plate (Corning, USA) with 25 nL compound in dimethyl sulfoxide in each well. […] Then the reaction was stopped after 1 hour incubation at room temperature by adding 5 uL of HTRF® Detection buffer which also contains 0.375 nM Eu3+-cryptate-labeled TK antibody and 0.062 uM streptavidin-XL665(SA-XL665) to allow for detection of the phosphorylated peptide product. After 1 h incubation at room temperature, the fluorescence intensity was measured with Envision™ plate reader (PerkinElmer, USA). Upon excitation at 340 nm by UV, the energy from Eu3+ donor of the antibody is transferred to the FRET acceptor XL665, and […] emits light at 665 nm. The level of kinase activity was quantified by the HTRF ratio that calculated from the intensity of emission at 665 nm and emission at 620 nm (fluorescence intensity @ 665 nm/fluorescence intensity @ 620 nm×10,000). The recombinant protein of human MER (528-end) was purchased from Carnabio, Japan. The recombinant human AXL (473-end) and TYRO3 (455-end) were purchased from SignalChem, Canada.
# Chain of human MER (528-end) (Q12866 528-999 limits assumed): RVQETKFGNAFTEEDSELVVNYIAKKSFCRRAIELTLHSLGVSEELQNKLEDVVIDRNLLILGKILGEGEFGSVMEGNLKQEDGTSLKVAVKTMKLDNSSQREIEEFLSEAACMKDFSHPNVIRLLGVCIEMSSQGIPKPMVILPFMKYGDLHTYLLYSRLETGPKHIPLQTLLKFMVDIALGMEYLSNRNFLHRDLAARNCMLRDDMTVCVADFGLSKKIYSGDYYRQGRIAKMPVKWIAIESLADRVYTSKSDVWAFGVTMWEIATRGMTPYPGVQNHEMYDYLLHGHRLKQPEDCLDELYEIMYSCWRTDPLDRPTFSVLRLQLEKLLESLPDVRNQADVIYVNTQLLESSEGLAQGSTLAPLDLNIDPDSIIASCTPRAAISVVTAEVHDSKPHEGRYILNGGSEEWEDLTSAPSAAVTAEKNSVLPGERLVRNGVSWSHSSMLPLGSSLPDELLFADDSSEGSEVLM
row,SMILES,IC50
1,"Cn1cc(-c2cnc(N)c(C(=O)N[C@@H]3CCN(C(=O)c4cccc(-c5cccc(NS(C)(=O)=O)c5)c4)C3)c2)cn1 [Example 481, (R)-2-amino-5-(1-methyl-1H-pyrazol-4-yl)-N-(1-(3′-(methylsulfonamido)-[1,1′-biphenyl]-3-carbonyl)pyrrolidin-3-yl)nicotinamide]",> 1000 nM
2,"Cn1cc(-c2cnc(N)c(C(=O)N[C@@H]3CCN(C(=O)c4ccc(-c5cccc(C(=O)N6CCNCC6)c5)cc4)C3)c2)cn1 [Example 466, (R)-2-amino-5-(1-methyl-1H-pyrazol-4-yl)-N-(1-(3′-(piperazine-1-carbonyl)-[1,1′-biphenyl]-4-carbonyl)pyrrolidin-3-yl)nicotinamide]",100 to 1000 nM
3,"CCc1ccc(OC(=O)N2CC[C@@H](NC(=O)c3cc(-c4cnn(C)c4)cnc3N)C2)cc1 [Example 93, 4-ethylphenyl (R)-3-(2-amino-5-(1-methyl-1H-pyrazol-4-yl)nicotinamido)pyrrolidine-1-carboxylate]",100 to 1000 nM
4,"CC(C)(c1ccc(-c2cnc(N)c(C(=O)N[C@@H]3CCN(C(=O)c4ccc(-c5ccccc5)cc4)C3)c2)cc1)N1CCN(S(=O)(=O)c2ccccc2[N+](=O)[O-])CC1 [Example 783, (R)—N-(1-([1,1′-biphenyl]-4-carbonyl)pyrrolidin-3-yl)-2-amino-5-(4-(2-(4-((2-nitrophenyl)sulfonyl)piperazin-1-yl)propan-2-yl)phenyl)nicotinamide]",100 to 1000 nM
5,"Cn1cc(-c2cnc(N)c(C(=O)N[C@@H]3CCN(C(=O)c4cccc(-c5ccnc(N6CCNCC6)c5)c4)C3)c2)cn1 [Example 480, (R)-2-amino-5-(1-methyl-1H-pyrazol-4-yl)-N-(1-(3-(2-(piperazin-1-yl)pyridin-4-yl)benzoyl)pyrrolidin-3-yl)nicotinamide]",> 1000 nM
6,"COc1cccc(CN2CC[C@@H](NC(=O)c3cc(-c4cnn(C5CCNCC5)c4)cnc3N)C2)c1 [Example 154, (R)-2-amino-N-(1-(3-methoxybenzyl)pyrrolidin-3-yl)-5-(1-(piperidin-4-yl)-1H-pyrazol-4-yl)nicotinamide]",100 to 1000 nM
7,"Cn1cc(-c2cnc(N)c(C(=O)N[C@@H]3CCN(Cc4ccc(Cl)cc4)C3)c2)cn1 [Example 210, (R)-2-amino-N-(1-(4-chlorobenzyl)pyrrolidin-3-yl)-5-(1-methyl-1H-pyrazol-4-yl)nicotinamide]",100 to 1000 nM
8,"Cn1cc(-c2cnc(N)c(C(=O)N[C@@H]3CCN(Cc4cc(Cl)cc(Cl)c4)C3)c2)cn1 [Example 224, (R)-2-amino-N-(1-(3,5-dichlorobenzyl)pyrrolidin-3-yl)-5-(1-methyl-1H-pyrazol-4-yl)nicotinamide]",> 1000 nM
9,"Cn1cc(-c2cnc(N)c(C(=O)N[C@@H]3CCN(C(=O)c4cccc(-c5cccc(CN6CCOCC6)c5)c4)C3)c2)cn1 [Example 461, (R)-2-amino-5-(1-methyl-1H-pyrazol-4-yl)-N-(1-(3′-(morpholinomethyl)-[1,1′-biphenyl]-3-carbonyl)pyrrolidin-3-yl)nicotinamide]",> 1000 nM
10,"Cn1cc(-c2cnc(N)c(C(=O)N[C@@H]3CCN(C(=O)Oc4cc(Cl)cc(Cl)c4)C3)c2)cn1 [Example 116, 3,5-dichlorophenyl (R)-3-(2-amino-5-(1-methyl-1H-pyrazol-4-yl)nicotinamido)pyrrolidine-1-carboxylate]",100 to 1000 nM
11,"CCc1cc(CO[C@H]2CN(C(=O)c3ccc(-c4ccccc4)cc3)C[C@@H]2NC(=O)c2cc(-c3cnn(C)c3)cnc2N)ccc1C [Example 674, N-((3S,4S)-1-([1,1′-biphenyl]-4-carbonyl)-4-((3-ethyl-4-methylbenzyl)oxy)pyrrolidin-3-yl)-2-amino-5-(1-methyl-1H-pyrazol-4-yl)nicotinamide]",> 1000 nM
12,"Cc1ccc(C(=O)N2CC[C@@H](NC(=O)c3cc(-c4cnn(C)c4)cnc3N)C2)cc1C [Example 415, (R)-2-amino-N-(1-(3,4-dimethylbenzoyl)pyrrolidin-3-yl)-5-(1-methyl-1H-pyrazol-4-yl)nicotinamide]",> 1000 nM
13,"CN1CCN(c2cccc(-c3cccc(C(=O)N4CC[C@@H](NC(=O)c5cc(-c6cnn(C)c6)cnc5N)C4)c3)c2)CC1 [Example 476, (R)-2-amino-5-(1-methyl-1H-pyrazol-4-yl)-N-(1-(3′-(4-methylpiperazin-1-yl)-[1,1′-biphenyl]-3-carbonyl)pyrrolidin-3-yl)nicotinamide]",> 1000 nM
14,"Cn1cc(-c2cnc(N)c(C(=O)N[C@@H]3CCN(C(=O)Nc4cccc(-c5cccc(N)c5)c4)C3)c2)cn1 [Example 257, (R)-2-amino-N-(1-((3′-amino-[1,1′-biphenyl]-3-yl)carbamoyl)pyrrolidin-3-yl)-5-(1-methyl-1H-pyrazol-4-yl)nicotinamide]",100 to 1000 nM
15,"Cn1cc(-c2cnc(N)c(C(=O)N[C@@H]3CCN(C(=O)Nc4ccccc4Oc4ccccc4)C3)c2)cn1 [Example 18, (R)-2-amino-5-(1-methyl-1H-pyrazol-4-yl)-N-(1-((2-phenoxyphenyl)carbamoyl)pyrrolidin-3-yl)nicotinamide]",> 1000 nM
16,"Cn1cc(-c2cnc(N)c(C(=O)N[C@@H]3CCN(C(=S)Nc4ccc(Cl)c(Cl)c4)C3)c2)cn1 [Example 44, (R)-2-amino-N-(1-((3,4-dichlorophenyl)carbamothioyl)pyrrolidin-3-yl)-5-(1-methyl-1H-pyrazol-4-yl)nicotinamide]",> 1000 nM
17,"Cn1cc(-c2cnc(N)c(C(=O)N[C@@H]3CCN(C(=O)Oc4ccccc4)C3)c2)cn1 [Example 54, phenyl (R)-3-(2-amino-5-(1-methyl-1H-pyrazol-4-yl)nicotinamido)pyrrolidine-1-carboxylate]",> 1000 nM
18,"Cn1cc(-c2cnc(N)c(C(=O)N[C@@H]3CCN(C(=O)c4ccc(-c5ccc(OCc6ccccc6)cc5)cc4)C3)c2)cn1 [Example 372, (R)-2-amino-N-(1-(4′-(benzyloxy)-[1,1′-biphenyl]-4-carbonyl)pyrrolidin-3-yl)-5-(1-methyl-1H-pyrazol-4-yl)nicotinamide]",> 1000 nM
19,"CN1CCN(Cc2ccc(-c3cccc(OC(=O)N4CC[C@@H](NC(=O)c5cc(-c6cnn(C)c6)cnc5N)C4)c3)cc2)CC1 [Example 275, 4′-((4-methylpiperazin-1-yl)methyl)-[1,1′-biphenyl]-3-yl (R)-3-(2-amino-5-(1-methyl-1H-pyrazol-4-yl)nicotinamido)pyrrolidine-1-carboxylate]",100 to 1000 nM
20,"COC(=O)c1ccc(OC)cc1OC(=O)N1CC[C@@H](NC(=O)c2cc(-c3cnn(C)c3)cnc2N)C1 [Example 65, 5-methoxy-2-(methoxycarbonyl)phenyl (R)-3-(2-amino-5-(1-methyl-1H-pyrazol-4-yl)nicotinamido)pyrrolidine-1-carboxylate]",> 1000 nM
21,"CCc1cc(CO[C@H]2CN(C(=O)c3cccc(-c4ccccc4)c3)C[C@@H]2NC(=O)c2cc(-c3cnn(C)c3)cnc2N)ccc1C [Example 675, N-((3S,4S)-1-([1,1′-biphenyl]-3-carbonyl)-4-((3-ethyl-4-methylbenzyl)oxy)pyrrolidin-3-yl)-2-amino-5-(1-methyl-1H-pyrazol-4-yl)nicotinamide]",> 1000 nM
22,"Nc1ncc(-c2cnn(C3CCNCC3)c2)cc1C(=O)N[C@@H]1CCN(Cc2ccc([N+](=O)[O-])cc2)C1 [Example 156, (R)-2-amino-N-(1-(4-nitrobenzyl)pyrrolidin-3-yl)-5-(1-(piperidin-4-yl)-1H-pyrazol-4-yl)nicotinamide]",> 1000 nM
23,"Cn1cc(-c2cnc(N)c(C(=O)N[C@@H]3CCN(C(=O)Oc4cccc(-c5ccc(CN6CCC(CO)CC6)cc5)c4)C3)c2)cn1 [Example 321, 4′-((4-(hydroxymethyl)piperidin-1-yl)methyl)-[1,1′-biphenyl]-3-yl (R)-3-(2-amino-5-(1-methyl-1H-pyrazol-4-yl)nicotinamido)pyrrolidine-1-carboxylate]",100 to 1000 nM
24,Cn1cc(-c2cnc(N)c(C(=O)NC[C@@H]3CCN(C(=O)c4cccc(-c5ccccc5)c4)C3)c2)cn1 [Example 739],> 1000 nM
25,"CCc1cccc(NC(=O)N2CC[C@@H](NC(=O)c3cc(-c4cnn(C)c4)cnc3N)C2)c1 [Example 19, (R)-2-amino-N-(1-((3-ethylphenyl)carbamoyl)pyrrolidin-3-yl)-5-(1-methyl-1H-pyrazol-4-yl)nicotinamide]",> 1000 nM
26,"Cn1cc(-c2cnc(N)c(C(=O)N[C@@H]3CCN(C(=O)c4ccc(-c5cccc(CN6CCN(CCO)CC6)c5)cc4)C3)c2)cn1 [Example 389, (R)-2-amino-N-(1-(3′-((4-(2-hydroxyethyl)piperazin-1-yl)methyl)-[1,1′-biphenyl]-4-carbonyl)pyrrolidin-3-yl)-5-(1-methyl-1H-pyrazol-4-yl)nicotinamide]",100 to 1000 nM
27,"Cn1cc(-c2cnc(N)c(C(=O)N[C@@H]3CCN(C(=O)Oc4cc5ccccc5cc4O)C3)c2)cn1 [Example 97, 3-hydroxynaphthalen-2-yl (R)-3-(2-amino-5-(1-methyl-1H-pyrazol-4-yl)nicotinamido)pyrrolidine-1-carboxylate]",> 1000 nM
28,"Cn1cc(-c2cnc(N)c(C(=O)N[C@@H]3CCN(C(=O)c4cccc(-c5cccc(C(=O)N6CCNCC6)c5)c4)C3)c2)cn1 [Example 464, (R)-2-amino-5-(1-methyl-1H-pyrazol-4-yl)-N-(1-(3′-(piperazine-1-carbonyl)-[1,1′-biphenyl]-3-carbonyl)pyrrolidin-3-yl)nicotinamide]",> 1000 nM
